Experimental data as given in patent publication US10058520B2, “Compositions and methods for treating alzheimer's disease and dementia” (Department of Veterans Affairs, priority 2007, dated 2018).

Legend:
APP gene = test: RT-PCR of APP mRNA in brain of normal mice; type: in vivo; conditions: normal mouse brain, day 21; FIG. 2 and 3; APP 751 mRNA for hypothyroid mice
Description: On day 21, animals were killed, whole brains were removed and hemisected for protein and RNA analysis, and serum was collected for T4 analysis.

human Aβ 1-40 and 1-42 [1] = test: ELISA for human Aβ in brain of R1.40 huAPP transgenic mice treated with T4; type: in vivo, R1.40 human APP transgenic mice
Description: In another study, we discovered that thyroid hormone down-regulates Aβ 1-40 and 1-42 in mice transgenic for the human APP gene. […] R1.40 human APP transgenic mice contain the entire human APP gene carried on a yeast artificial chromosome.
Mice used in these studies carried the complete human APP gene (huAPP), including the 5′ upstream promoter region, inserted into a yeast artificial chromosome (YAC) construct and are referred to as huAPP-YAC transgenic mice (R1.40 strain). The huAPP gene in these mice contained the Swedish mutation and is expressed in high pathology brain regions.
R1.40 mice were implanted with T4 containing slow release pellets for three weeks and ELISA specific for human Aβ was performed utilizing normalized protein from mouse brain cytosols. We observed a 30% decrease in human Aβ 1-42 levels and a 25% decrease in Aβ 1-40 levels in mice treated for three weeks with T4. […] Thus, it has been shown that low level thyroid hormone therapy substantially decreases human Aβ40 and Aβ42 levels in both normal and hypothyroid transgenic mice (n=9 animals per group ±SD).

APP isoforms = test: Western blot with anti-APP antibody on hemisected brain extracts; type: in vivo, mice; conditions: day 21, FIG. 4
Protocol: In FIG. 4, Western blots were performed utilizing anti-APP antibody on protein from the hemisected brain extracts.

[2] = system: +356/+755 region of the first intron of the mouse mdm2 gene in LA-N-5 neuroblastoma cells and HCC1806 breast cancer cells; test: pGL3MDM2 reporter transfection assay; type: cell-based; conditions: LA-N-5 and p53 negative HCC1806 cells; FIG. 8 (treatment with T3)
Description: In order to evaluate the direct effect of thyroid hormone on mdm2 gene expression, we cloned the +356/+755 region from the first intron of the mouse mdm2 gene into pGL3-Promoter vector (pGL3MDM2) for use in transfection assays. This region contains an element which binds monomers and homodimers of TRα, in addition to heterodimers of TRα and RXRβ.

[3] = system: APP secretion in SH-SY5Y and LA-N-5 human neuroblastoma cell lines and NHNP neuronal progenitor cells; test: APP isoform secretion in human neuroblastoma and neuronal progenitor cells (western blot); type: cell-based; conditions: differentiated (+RA) and undifferentiated (-RA) SH-SY5Y, all tested human cell lines, 24 hours of treatment, FIG. 1
[4] = blood, after a single dose; cited from earlier work
[5] = humans and mice; previous studies; cited from earlier work
human Aβ 1-40 and 1-42 [6] = test: ELISA for human Aβ in brain of huAPP transgenic mice treated with CHP+Zn; type: in vivo, human APP transgenic mice; conditions: 1.0 mg/L CHP+10 mg/L Zn, or Zn or CHP alone, n=9, FIG. 14
Description: According to our studies, CHP in combination with a zinc salt decreases Aβ 1-40 and 1-42 in mice transgenic for human APP. […]
In some embodiments, higher doses are effective as well.

insulin levels = conditions: previous studies; concentration dependent relative to the amount of zinc; cited from earlier work
[7] = R1.40 mice, T4 slow release pellets for three weeks, brain cytosols, ELISA

Compound: CCCc1cc(=O)[nH]c(=S)[nH]1 [propylthiouracil]
- APP mRNA levels (RT-PCR) vs control animals (APP gene): increased
- brain Aβ levels in hypothyroid animals (human Aβ 1-40 and 1-42 [1]; iodine-deficient PTU diet for three weeks, FIG. 6): increase
- expression of APP isoforms (western blot) relative to euthyroid animals (APP isoforms): increased

Compound: thyroid hormone
- reporter expression of pGL3MDM2 [2]: negative regulation

Compound: N[C@@H](Cc1cc(I)c(Oc2ccc(O)c(I)c2)c(I)c1)C(=O)O [T3, L-triiodothyronine]
- APP secretion [3]: negative hormonal regulation of APP secretion in a concentration dependent manner
- half-life [4]: hours

Compound: O=C1N[C@@H](Cc2cnc[nH]2)C(=O)N2CCC[C@@H]12 [CHP, cyclo-Hispro]
- toxicity [5]: non-toxic
- brain levels of soluble and insoluble Aβ40 and Aβ42 vs control (human Aβ 1-40 and 1-42 [6]): no significant changes
- insulin levels (insulin levels): does not decrease

Compound: NC(Cc1cc(I)c(Oc2cc(I)c(O)c(I)c2)c(I)c1)C(=O)O (stereo not shown) [T4, 3:5,3′:5′ tetra-iodothyronine]
- decrease in Aβ 1-40 levels (human Aβ 1-40 and 1-42 [1]; [7]): 25%
- decrease in human Aβ 1-42 levels (human Aβ 1-40 and 1-42 [1]; [7]): 30%
- half-life [4]: several days

Compound: [Zn] [Zn]
- brain levels of soluble and insoluble Aβ40 and Aβ42 vs control (human Aβ 1-40 and 1-42 [6]): no significant changes
